Experimental data: PubChem BioAssay (NCI)
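A five-concentration, 48-hour dose response in 96-well plates underlies each endpoint, interpolated linearly between surrounding concentrations. Here, GI50 denotes the concentration required for 50% inhibition of growth. TGI: total growth inhibition.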

Key:
Assay in all cases: growth of human tumour cells (NCI), 48 h
A498 renal = system: A498 renal
KM12 colon = system: KM12 colon
NCI-H226 lung = system: NCI-H226 lung
NCI/ADR-RES ovarian = system: NCI/ADR-RES ovarian
SK-MEL-28 melanoma = system: SK-MEL-28 melanoma
SF-539 CNS = system: SF-539 CNS
A549 NSCLC = system: A549 NSCLC
HCC-2998 colon = system: HCC-2998 colon
NCI-H460 lung = system: NCI-H460 lung
COLO 205 colon = system: COLO 205 colon
OVCAR-8 ovarian = system: OVCAR-8 ovarian
RPMI-8226 leukemia = system: RPMI-8226 leukemia
UACC-257 melanoma = system: UACC-257 melanoma
HOP-62 NSCLC = system: HOP-62 NSCLC
MOLT-4 leukemia = system: MOLT-4 leukemia
UACC-62 melanoma = system: UACC-62 melanoma
MDA-MB-231 breast = system: MDA-MB-231 breast
HL-60(TB) leukemia = system: HL-60(TB) leukemia
PC-3 prostate = system: PC-3 prostate
TK-10 renal = system: TK-10 renal
SNB-19 CNS = system: SNB-19 CNS
HT29 colon = system: HT29 colon
MALME-3M melanoma = system: MALME-3M melanoma
SF-295 CNS = system: SF-295 CNS
SR leukemia = system: SR leukemia
HCT-15 colon = system: HCT-15 colon
BT-549 breast = system: BT-549 breast
UO-31 renal = system: UO-31 renal
DU-145 prostate = system: DU-145 prostate

Cc1nnc(N/N=C/c2ccc([N+](=O)[O-])o2)[nH]c1=O
TGI (A498 renal): 14300 nM
GI50 (KM12 colon): 575 nM
TGI (KM12 colon): > 100000 nM
GI50 (NCI-H226 lung): 1460 nM
TGI (NCI-H226 lung): 25400 nM
GI50 (NCI/ADR-RES ovarian): 1750 nM
TGI (NCI/ADR-RES ovarian): > 100000 nM
GI50 (SK-MEL-28 melanoma): 815 nM
TGI (SK-MEL-28 melanoma): > 100000 nM
GI50 (SF-539 CNS): 447 nM
TGI (SF-539 CNS): > 51600 nM
GI50 (A549 NSCLC): 2570 nM
TGI (A549 NSCLC): > 49500 nM
GI50 (HCC-2998 colon): 1140 nM
TGI (HCC-2998 colon): > 100000 nM
GI50 (NCI-H460 lung): 3190 nM
TGI (NCI-H460 lung): 14600 nM
GI50 (COLO 205 colon): 2530 nM
TGI (COLO 205 colon): > 100000 nM
GI50 (OVCAR-8 ovarian): 785 nM
TGI (OVCAR-8 ovarian): > 100000 nM
GI50 (RPMI-8226 leukemia): 2950 nM
TGI (RPMI-8226 leukemia): > 32000 nM
GI50 (UACC-257 melanoma): 51.2 nM
TGI (UACC-257 melanoma): 5260 nM
GI50 (HOP-62 NSCLC): 1450 nM
TGI (HOP-62 NSCLC): > 68200 nM
GI50 (MOLT-4 leukemia): 833 nM
TGI (MOLT-4 leukemia): > 100000 nM
GI50 (UACC-62 melanoma): 666 nM
TGI (UACC-62 melanoma): 7750 nM
GI50 (MDA-MB-231 breast): 1260 nM
TGI (MDA-MB-231 breast): > 24500 nM
GI50 (HL-60(TB) leukemia): 2500 nM
TGI (HL-60(TB) leukemia): > 100000 nM
GI50 (PC-3 prostate): 512 nM
TGI (PC-3 prostate): > 100000 nM
GI50 (TK-10 renal): 1030 nM
TGI (TK-10 renal): > 25000 nM
GI50 (SNB-19 CNS): 779 nM
TGI (SNB-19 CNS): > 100000 nM
GI50 (HT29 colon): 3630 nM
TGI (HT29 colon): > 100000 nM
GI50 (MALME-3M melanoma): 970 nM
TGI (MALME-3M melanoma): 4300 nM
GI50 (SF-295 CNS): 1930 nM
TGI (SF-295 CNS): > 100000 nM
GI50 (SR leukemia): 1100 nM
TGI (SR leukemia): > 100000 nM
GI50 (HCT-15 colon): 1860 nM
TGI (HCT-15 colon): > 100000 nM
GI50 (BT-549 breast): 566 nM
TGI (BT-549 breast): > 21500 nM
GI50 (UO-31 renal): 931 nM
TGI (UO-31 renal): 10800 nM
GI50 (DU-145 prostate): 2100 nM
TGI (DU-145 prostate): > 100000 nM
